According to ChEMBL document CHEMBL4033735, “A potent and selective natriuretic peptide receptor-3 blocker 11-mer peptide created by hybridization of musclin and atrial natriuretic peptide” (Bioorg Med Chem Lett, 2017):
Calls of active or inactive are those of the source. The calls are words filed in the database; no cut-off is given here. Bridge positions count the residues as written; N and C are the ends. Square brackets hold non-standard residues; d marks the D form. Peptide text beside a SMILES is read from it. Cha = N[C@@H](CC1CCCCC1)C(=O)O

Experiments:
[1] = biological target: T1, Atrial natriuretic peptide receptor 3 (Homo sapiens, UniProt P17342); assay: Displacement of [125I]-human ANP from His-tagged and Fc fragment containing human NPR-3 extracellular domain expressed in FreeStyle 293 cells incubated for 2 hrs by top count method; assay type: cell-based
T1 sequence (P17342 whole entry): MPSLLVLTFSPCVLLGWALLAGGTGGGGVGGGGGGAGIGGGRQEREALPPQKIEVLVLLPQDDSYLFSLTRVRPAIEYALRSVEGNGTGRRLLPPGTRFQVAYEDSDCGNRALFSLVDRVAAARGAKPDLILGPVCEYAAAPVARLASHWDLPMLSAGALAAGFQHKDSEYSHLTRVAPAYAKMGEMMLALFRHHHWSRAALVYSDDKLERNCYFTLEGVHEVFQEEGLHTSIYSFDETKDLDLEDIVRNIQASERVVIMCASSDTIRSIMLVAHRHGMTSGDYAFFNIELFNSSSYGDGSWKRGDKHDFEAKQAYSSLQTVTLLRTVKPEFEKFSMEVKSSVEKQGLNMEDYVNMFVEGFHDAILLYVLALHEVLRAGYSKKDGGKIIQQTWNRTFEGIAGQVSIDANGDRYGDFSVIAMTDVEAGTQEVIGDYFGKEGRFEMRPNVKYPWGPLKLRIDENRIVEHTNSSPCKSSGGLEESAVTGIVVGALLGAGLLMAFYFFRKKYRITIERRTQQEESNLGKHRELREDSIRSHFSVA

[2] = Stability in 10% C57BL/6J mouse serum/phosphate-buffered saline assessed as residual parent compound remaining at 1 mM after 60 mins at 37 degC by HPLC method; assay type: ADME, cell-free; conditions: 10% mouse serum in phosphate-buffered saline, read-out: Stability
[3] = biological target: T2, Atrial natriuretic peptide receptor 1 (Homo sapiens, UniProt P16066); assay: Displacement of [125I]-human ANP from human NPR-1 incubated for 2 hrs by top count method
T2 sequence (P16066 whole entry): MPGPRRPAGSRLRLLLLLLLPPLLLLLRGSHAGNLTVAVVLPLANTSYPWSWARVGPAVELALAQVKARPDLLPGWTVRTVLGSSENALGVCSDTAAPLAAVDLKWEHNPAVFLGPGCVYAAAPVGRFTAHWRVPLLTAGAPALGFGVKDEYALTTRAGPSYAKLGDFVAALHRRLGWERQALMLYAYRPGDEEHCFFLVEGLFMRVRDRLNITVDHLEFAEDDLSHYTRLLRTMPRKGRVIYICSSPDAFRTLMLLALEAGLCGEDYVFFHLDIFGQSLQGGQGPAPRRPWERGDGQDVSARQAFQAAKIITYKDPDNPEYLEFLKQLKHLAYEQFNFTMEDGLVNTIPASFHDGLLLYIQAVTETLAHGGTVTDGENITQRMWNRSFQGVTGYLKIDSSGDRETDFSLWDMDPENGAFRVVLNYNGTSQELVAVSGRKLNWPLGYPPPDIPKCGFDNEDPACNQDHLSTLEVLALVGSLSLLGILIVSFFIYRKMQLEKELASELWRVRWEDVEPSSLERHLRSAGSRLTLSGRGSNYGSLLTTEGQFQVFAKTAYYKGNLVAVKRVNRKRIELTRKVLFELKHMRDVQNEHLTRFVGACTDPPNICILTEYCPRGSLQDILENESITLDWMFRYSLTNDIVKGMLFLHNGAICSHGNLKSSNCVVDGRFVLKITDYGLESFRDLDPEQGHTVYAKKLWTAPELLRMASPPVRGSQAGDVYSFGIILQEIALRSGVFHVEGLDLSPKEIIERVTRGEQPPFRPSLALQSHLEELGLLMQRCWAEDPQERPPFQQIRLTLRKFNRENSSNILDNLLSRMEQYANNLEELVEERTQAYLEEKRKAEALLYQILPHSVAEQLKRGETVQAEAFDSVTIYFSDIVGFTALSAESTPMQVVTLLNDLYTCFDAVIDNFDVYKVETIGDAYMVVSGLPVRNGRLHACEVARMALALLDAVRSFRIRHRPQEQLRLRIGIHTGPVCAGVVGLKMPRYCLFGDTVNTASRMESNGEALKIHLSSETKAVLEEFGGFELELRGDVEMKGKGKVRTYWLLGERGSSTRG

[4] = Stability in 10% C57BL/6J mouse serum/phosphate-buffered saline assessed as residual parent compound remaining at 1 mM after 30 mins at 37 degC by HPLC method; assay type: ADME, cell-free; conditions: 10% mouse serum in phosphate-buffered saline, read-out: Stability
[5] = Stability in C57BL/6J mouse serum assessed as residual parent compound remaining at 1 mM after 2 hrs at 37 degC by HPLC method; assay type: ADME, cell-free; conditions: read-out: Stability
[6] = Drug level in mouse blood at 300 nmol/kg/day dosed as continuous administration for 3 days; assay type: ADME, organism-based; conditions: whole blood, read-out: Drug uptake
Mus musculus [7] = assay: Increase in cGMP production C57BL/6J mouse blood at 1 umol/kg/day, sc administered via infusion from implanted osmotic pumps for 7 days and co-dosed with 1 umol/kg/day mANP by enzyme immunoassay; assay type: functional, organism-based
[8] = biological target: T3, Atrial natriuretic peptide receptor 3 (Mus musculus) (UniProt P70180); assay: Activity at NPR-3 in C57BL/6J mouse primary adipocytes assessed as increase in mANP-stimulated cGMP production at 1 uM pre-incubated for 30 mins before mANP stimulation for 15 mins by enzyme immunoassay; assay type: cell-based
T3 sequence (whole entry): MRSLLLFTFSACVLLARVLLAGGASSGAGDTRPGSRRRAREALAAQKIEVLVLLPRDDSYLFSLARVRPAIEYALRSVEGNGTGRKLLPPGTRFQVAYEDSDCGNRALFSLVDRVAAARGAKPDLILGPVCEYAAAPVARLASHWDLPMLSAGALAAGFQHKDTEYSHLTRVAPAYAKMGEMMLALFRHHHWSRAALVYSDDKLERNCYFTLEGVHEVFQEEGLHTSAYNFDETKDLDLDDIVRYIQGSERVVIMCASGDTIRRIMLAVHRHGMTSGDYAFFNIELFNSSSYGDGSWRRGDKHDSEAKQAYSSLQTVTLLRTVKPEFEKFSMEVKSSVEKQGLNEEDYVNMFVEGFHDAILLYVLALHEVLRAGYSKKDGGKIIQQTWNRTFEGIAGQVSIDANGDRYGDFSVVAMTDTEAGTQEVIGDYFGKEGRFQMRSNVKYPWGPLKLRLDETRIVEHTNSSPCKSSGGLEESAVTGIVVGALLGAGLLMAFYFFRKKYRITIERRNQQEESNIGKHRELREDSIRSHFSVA

[9] = Stability in C57BL/6J mouse serum assessed as residual parent compound remaining at 1 mM after 4 hrs at 37 degC by HPLC method; assay type: ADME, cell-free; conditions: read-out: Stability
[10] = Drug level in mouse blood at 1000 nmol/kg/day dosed as continuous administration for 3 days; assay type: ADME, organism-based; conditions: whole blood, read-out: Drug uptake
Mus musculus [11] = assay: Increase in cGMP production C57BL/6J mouse blood at 1 umol/kg/day, sc administered via infusion from implanted osmotic pumps for 7 days by enzyme immunoassay; assay type: functional, organism-based
Serum = assay: Stability in C57BL/6J mouse serum at 1 mM up to 4 hrs at 37 degC by HPLC method; assay type: ADME, cell-free; conditions: 1000 µM
[12] = Stability in C57BL/6J mouse serum assessed as residual parent compound remaining at 1 mM after 60 mins at 37 degC by HPLC method; assay type: ADME, cell-free; conditions: read-out: Stability
[13] = Stability in C57BL/6J mouse serum assessed as residual parent compound remaining at 1 mM after 30 mins at 37 degC by HPLC method; assay type: ADME, cell-free; conditions: read-out: Stability

Compound	IC50 [1]	remaining at 1 h, 1000 µM [2]	IC50 [3]	remaining at 0.5 h, 1000 µM [4]	remaining at 2 h, 1000 µM [5]	concentration at 72 h [6]	Activity (Mus musculus [7])	Activity [8]	remaining at 4 h, 1000 µM [9]	concentration at 72 h [10]	Activity (Mus musculus [11])	Stability (Serum)	remaining at 1 h, 1000 µM [12]	remaining at 0.5 h, 1000 µM [13]
CC[C@H](C)[C@@H]1NC(=O)[C@H](CCCNC(=N)N)NC(=O)[C@H](CC(=O)O)NC(=O)[C@H]([C@@H](C)CC)NC(=O)[C@H](CCCNC(=N)N)NC(=O)CNC(=O)CNC(=O)[C@H](Cc2ccccc2)NC(=O)[C@@H](NC(=O)[C@H](CO)NC(=O)[C@H](CO)NC(=O)[C@@H](N)CCCNC(=N)N)CSSC[C@@H](C(=O)O)NC(=O)[C@H](C)NC(=O)CNC1=O (H-RSSCFGGRIDRIGAC-OH; disulfide 4-15)	0.51 nM	2%	> 1000 nM	4%	–	–	–	–	–	–	–	–	–	–
CC[C@H](C)[C@H](NC(=O)[C@H](CCCNC(=N)NC)NC(=O)[C@H](CC(=O)O)NC(=O)[C@@H](NC(=O)[C@@H]1C[C@@H](O)CN1C(=O)CNC(=O)[C@@H](CO)NC(=O)[C@H](CC1CCCCC1)NC(=O)[C@H]1C[C@H](O)CN1C(=O)[C@H](CO)NC(=O)[C@@H](Cc1ccccc1)NC(=O)CO)[C@@H](C)CC)C(=O)NC	0.079 nM	–	> 1000 nM	–	107%	10.1 nM	Active	Active	92%	40.5 nM	Active	–	–	–
CC[C@H](C)[C@H](NC(=O)[C@H](CCCNC(=N)NC)NC(=O)[C@H](CC(=O)O)NC(=O)[C@@H](NC(=O)[C@@H]1C[C@@H](O)CN1C(=O)CNC(=O)[C@@H](C)NC(=O)[C@H](CC1CCCCC1)NC(=O)[C@H]1C[C@H](O)CN1C(=O)[C@H](CO)NC(=O)[C@@H](Cc1ccccc1)NC(C)=O)[C@@H](C)CC)C(=O)NC	0.099 nM	–	> 1000 nM	–	100%	–	–	–	102%	–	–	Stable	–	–
CC[C@H](C)[C@H](NC(=O)[C@H](CCCNC(=N)N)NC(=O)[C@H](CC(=O)O)NC(=O)[C@@H](NC(=O)[C@H](CCCNC(=N)N)NC(=O)CNC(=O)CNC(=O)[C@H](CC1CCCCC1)NC(=O)[C@H]1CCCN1C(=O)[C@H](CO)NC(=O)[C@H](N)Cc1ccccc1)[C@@H](C)CC)C(=O)NCC(N)=O	0.13 nM	63%	> 1000 nM	80%	–	–	–	–	–	–	–	–	–	–
CC[C@H](C)[C@H](NC(=O)[C@H](CCCNC(=N)N)NC(=O)[C@H](CC(=O)O)NC(=O)[C@@H](NC(=O)[C@@H]1CCCN1C(=O)CNC(=O)[C@@H](C)NC(=O)[C@H](CC1CCCCC1)NC(=O)[C@H]1CCCN1C(=O)[C@H](CO)NC(=O)[C@@H](Cc1ccccc1)NC(C)=O)[C@@H](C)CC)C(N)=O	0.054 nM	–	> 1000 nM	–	–	–	–	–	–	–	–	–	68%	81%
CC[C@H](C)[C@H](NC(=O)[C@H](CCCNC(=N)N)NC(=O)[C@H](CC(=O)O)NC(=O)[C@@H](NC(=O)[C@@H]1CCCN1C(=O)CNC(=O)[C@@H](C)NC(=O)[C@H](CC1CCCCC1)NC(=O)[C@H]1CCCN1C(=O)[C@H](CO)NC(=O)[C@@H](Cc1ccccc1)NC(C)=O)[C@@H](C)CC)C(=O)NC	0.087 nM	–	> 1000 nM	–	–	–	–	–	–	–	–	–	74%	86%
CC[C@H](C)[C@H](NC(=O)[C@H](CCCNC(=N)N)NC(=O)[C@H](CC(=O)O)NC(=O)[C@@H](NC(=O)[C@H](CCCNC(=N)N)NC(=O)CNC(=O)CNC(=O)[C@H](CC1CCCCC1)NC(=O)CNC(=O)[C@H](CO)NC(=O)[C@H](Cc1ccccc1)NC(=O)[C@H](CO)NC(=O)[C@@H](N)CCCNC(=N)N)[C@@H](C)CC)C(=O)NCC(N)=O (H-RSFSG[Cha]GGRIDRIG-NH2)	0.3 nM	0%	> 1000 nM	5%	–	–	–	–	–	–	–	–	–	–
CC[C@H](C)[C@H](NC(=O)[C@H](CCCNC(=N)NC)NC(=O)[C@H](CC(=O)O)NC(=O)[C@@H](NC(=O)[C@@H]1CCCN1C(=O)CNC(=O)[C@@H](C)NC(=O)[C@H](CC1CCCCC1)NC(=O)[C@H]1CCCN1C(=O)[C@H](CO)NC(=O)[C@@H](Cc1ccccc1)NC(C)=O)[C@@H](C)CC)C(=O)NC	0.14 nM	–	> 1000 nM	–	77%	–	–	–	62%	13.7 nM	–	–	84%	91%
